How the values were obtained:
[1] = system: DNA plasmid pcDNA 3.1 HisC (8.2 kb); assay: Digestion of plasmid DNA with restriction enzyme Bam H1 after incubation with compounds (agarose gel electrophoresis); assay type: biochemical; conditions: compound 2 or 20 µM, overnight at 37°C with 0.6 µg plasmid, then BamH1 2U/sample for 3 hours at 37°C; gel not shown
Procedure: The impact of compounds 1a and 1b has been tested on the digestion of DNA plasmid pcDNA 3.1 HisC (8.2 kb) with restriction enzyme Bam H1.
1. For this purpose, pcDNA 3.1 HisC plasmid DNA (0.6 µg) was dissolved in 1×BamH1 buffer and incubated overnight at 37°C with the following reference or test compounds:
The concentration of the reference and test compounds in each sample was 2 or 20 µM.
2. After overnight incubation, the reaction mixture was digested with BamH1 restriction enzyme (2U/sample) for 3 hours at 37°C. The total volume of the samples was 10 µL.
3. The reaction products were applied on 1% agarose gel and electrophoresis was performed in TAE buffer.

[2] = system: synthetic DNA duplex (23 nt- 5'TCTTCAAGAATTCAGGTCCTGAT 3'); assay: Circular dichroism (CD) spectra of synthetic DNA duplex with test compounds; assay type: binding; conditions: immediately after addition; DNA duplex 2µM, compound 20µM, DMSO 0.2%, PBS, 23°C, 200-320 nm; Figure 1
Procedure: The ability of the test compounds 1a and 1b to interact with DNA was tested by the circular dichroism (CD) technique.
1. For this purpose, samples were prepared in PBS buffer containing: […] of synthetic DNA duplex (23 nt- 5'TCTTCAAGAATTCAGGTCCTGAT 3') or DNA of bovine thymus (0.2 mg/ml) and test compounds at a concentration of 20µM or 40µM for synthetic DNA duplex sample and thymus DNA sample, respectively. The samples contained 0.2% or 0.4% DMSO (for synthetic DNA duplex sample and thymus DNA sample, respectively), which is a solvent of the test compounds.
2. CD spectra (in the range from 200 nm to 320 nm) were recorded immediately after addition of the test compounds as well as after 1.5 h incubation. The measurement was carried out at 23°C in a quartz cuvette (optical path length 0.5 cm) using a spectroscope CD6 (Jobin-Yvon, France).
3. CD spectra of DNA incubated with the test compounds were compared with the control spectrum (spectrum was recorded for a sample of DNA (2µM or 0.2 mg/ml) in the presence of DMSO (final concentration of 0.2% or 0.4%).

| SMILES | interaction with plasmid DNA: resistance to digestion by the endonucleolytic enzyme Bam H1 [1] | changes of CD spectrum of duplex DNA compared to control (duplex DNA + DMSO) [2] |
| --- | --- | --- |
| COc1cccc2c1C(=O)c1c(O)c3c(c(O)c1C2=O)C[C@@](O)(C(C)=O)C[C@@H]3O[C@H]1C[C@H](N)[C@H](O)[C@H](C)O1 [Daunorubicin, reference compound] | increasing its resistance to digestion | changing significantly its structure |
| COP(=O)(OC)/C(=C/c1ccc2ccc3cccc4ccc1c2c34)C(=O)c1ccc2c(c1)OCO2 [compound 1a] | increasing its resistance to digestion | changes compared to the control sample |
| O=C(/C(=C/c1ccc2ccc3cccc4ccc1c2c34)P(=O)(O)O)c1ccc2c(c1)OCO2 [compound 1b, (Z)-3-(benzo[d][1,3]dioxol-5-yl)-1-(pyrene-1-yl)-3-oxoprop-1-en-2-ylphosphonic acid] | increasing its resistance to digestion | changes compared to the control sample |

Source: patent EP2808337A1, “(E)-3-Aryl-3-oxoprop-1-enyl-2-phosphonic acid and its derivatives, methods for their preparation and their use” (Centrum Badan Molekularnych I Makromolekularnych Pan, priority 2013, dated 2014)
